pIC50: −log10 of the molar value.
target: T1, Metabotropic glutamate receptor 1 (Homo sapiens, UniProt Q13255); assay: Compound was tested for inhibition of glutamate-evoked (10 uM) [Ca2+] mobilization in Metabotropic glutamate receptor 1 expressed-CHO cells; NE: No effect at 1-100 uM; assay type: cell-based
T1 sequence (Q13255 whole entry): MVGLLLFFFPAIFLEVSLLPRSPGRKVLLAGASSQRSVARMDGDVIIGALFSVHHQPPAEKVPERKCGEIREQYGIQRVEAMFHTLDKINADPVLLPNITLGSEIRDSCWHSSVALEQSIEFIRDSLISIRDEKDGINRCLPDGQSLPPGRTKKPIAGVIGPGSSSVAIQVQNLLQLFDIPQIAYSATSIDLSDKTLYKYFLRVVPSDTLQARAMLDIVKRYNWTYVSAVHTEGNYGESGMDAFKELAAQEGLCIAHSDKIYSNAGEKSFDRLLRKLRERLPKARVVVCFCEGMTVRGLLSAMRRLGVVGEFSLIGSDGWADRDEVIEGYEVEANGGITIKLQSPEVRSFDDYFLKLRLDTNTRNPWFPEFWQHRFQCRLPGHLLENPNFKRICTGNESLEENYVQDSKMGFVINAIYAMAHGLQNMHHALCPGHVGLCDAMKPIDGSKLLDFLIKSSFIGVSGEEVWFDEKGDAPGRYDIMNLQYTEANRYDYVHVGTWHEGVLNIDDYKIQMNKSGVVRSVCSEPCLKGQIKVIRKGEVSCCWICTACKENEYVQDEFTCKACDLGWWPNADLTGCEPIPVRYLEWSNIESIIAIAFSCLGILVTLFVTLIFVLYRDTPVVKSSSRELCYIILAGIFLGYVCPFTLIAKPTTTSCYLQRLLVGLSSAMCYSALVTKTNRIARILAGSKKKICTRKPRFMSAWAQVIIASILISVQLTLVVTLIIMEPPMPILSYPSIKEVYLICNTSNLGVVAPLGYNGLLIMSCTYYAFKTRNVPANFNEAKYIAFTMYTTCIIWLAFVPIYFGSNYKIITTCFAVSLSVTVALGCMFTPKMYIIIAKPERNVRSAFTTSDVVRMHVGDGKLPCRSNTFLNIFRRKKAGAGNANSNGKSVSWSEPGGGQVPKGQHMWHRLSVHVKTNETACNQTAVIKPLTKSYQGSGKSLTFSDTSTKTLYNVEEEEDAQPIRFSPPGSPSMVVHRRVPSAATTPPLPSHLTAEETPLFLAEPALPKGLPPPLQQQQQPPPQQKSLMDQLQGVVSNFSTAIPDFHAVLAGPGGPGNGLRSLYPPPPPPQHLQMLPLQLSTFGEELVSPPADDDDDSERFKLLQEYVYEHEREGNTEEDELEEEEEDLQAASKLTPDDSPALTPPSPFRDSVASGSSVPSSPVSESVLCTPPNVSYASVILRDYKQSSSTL

IC50 | SMILES
No effect | O=C(Nc1ccccc1)c1cc(=O)c2ccccc2o1
No effect | O=C1c2ccccc2OC2(C(=O)Nc3ccccc3)CC12 (stereo unspecified)
No effect | CCOC(=O)c1cc(=O)c2ccccc2o1
No effect | CCOC(=O)C12CC1C(=O)c1ccccc1O2 (stereo unspecified)
No effect | CN(C(=O)c1cc(=O)c2ccccc2o1)c1ccccc1
No effect | CN(C(=O)C12CC1C(=O)c1ccccc1O2)c1ccccc1 (stereo unspecified)

target: T1, Metabotropic glutamate receptor 1; assay: Compound was tested for inhibition of glutamate-evoked (10 uM) [Ca2+] mobilization in mGluR1-alpha expressed-CHO cells.; assay type: cell-based

pIC50 | SMILES
5.52 | O=C(Nc1ccccc1)C12CC1/C(=N\O)c1ccccc1O2 (stereo unspecified)
5.00 | CN(C(=O)C12CC1/C(=N\O)c1ccccc1O2)c1ccccc1 (stereo unspecified)
3.15 | CC(N)(C(=O)O)c1ccc(C(=O)O)cc1 (stereo unspecified)
4.64 | CCOC(=O)C12CC1/C(=N\O)c1ccccc1O2 (stereo unspecified)
3.70 | NC(C(=O)O)c1ccc(C(=O)O)c(O)c1 (stereo unspecified)
